Measured values: patent publication US12545681B2, “Compound used as RET kinase inhibitor and application thereof” (TYK Medicines, Inc., priority 2020, dated 2026)
Positions count from the first letter of the chain named.

Experiments:
[1] = molecular target: T1, Ba/F3-KIF5B-RET (Homo sapiens, UniProt P07949); assay: Cell anti-proliferation (CellTiter-Glo), Ba/F3-KIF5B-RET cells; format: cell-based; details: for IC50: cell viability, 72 h incubation, CellTiter-Glo
T1 construct: KIF5B (fusion partner, N-terminal part of kinesin-1 heavy chain, P33176); host or cells: Ba/F3 (murine pro-B cells); the other entry of the earlier key: KIF5B (P33176, Kinesin-1 heavy chain)
T1 sequence (P07949 713-1063 limits assumed): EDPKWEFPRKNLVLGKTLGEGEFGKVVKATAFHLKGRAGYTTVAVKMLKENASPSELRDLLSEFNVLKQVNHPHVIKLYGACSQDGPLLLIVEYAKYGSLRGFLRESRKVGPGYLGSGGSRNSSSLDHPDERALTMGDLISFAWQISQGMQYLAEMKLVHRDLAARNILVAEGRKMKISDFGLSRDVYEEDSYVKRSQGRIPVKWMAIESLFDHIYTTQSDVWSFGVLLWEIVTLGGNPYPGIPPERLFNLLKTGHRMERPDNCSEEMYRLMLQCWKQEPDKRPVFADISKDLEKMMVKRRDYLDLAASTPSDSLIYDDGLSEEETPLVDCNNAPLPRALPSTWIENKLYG
Method: (§1) Ba/F3-KIF5B-RET, Ba/F3-KIF5B-RET-V804L and Ba/F3-KIF5B-RET-V804M cells were constructed by PreceDo Pharmaceuticals Co., Ltd.
(§2) Ba/F3-KIF5B-RET, Ba/F3-KIF5B-RET-V804L and Ba/F3-KIF5B-RET-V804M medium: RPMI-1640+10% FBS+1% P/S.
(§3) A 1000×solution of the compound was prepared with DMSO, the compound was diluted to 20 times to obtain the final concentration with a growth medium, and 2 μl 1000×cpd was added to 98 μl growth medium.
(§4) Cells were centrifuged and resuspended with growth medium and cell counting was performed using a cell counter. The cell suspension was diluted with growth medium to the desired concentration. 95 uL of the diluted cell suspension was taken out to a 96-well plate. 5 μL of 20×compound solution was added to the 96-well plate to a final DMSO concentration of 0.1% per well. The 96-well plate was incubated for 72 h at 37° C. with 5% CO2.
(§5) The 96-well plate was equilibrated to room temperature before the assay, 50 μl of CellTiter-Glo® Reagent was added to each well, the cells were fully lysed by shaking for 2 minutes on a shaker, incubated for 10 minutes at room temperature, and Paradigm was used to detect and record the […] readings.
(§6) Cell viability was analyzed using Graphpad 7.0 software according to the formula Cell viability (CV %)=(RLU compound−RLU blank)/(RLU control−RLU blank)*100%, and the corresponding IC50 data were calculated, in Table 1, the following names are used: <10.00 nM=A; 10.01-50.0 nM=B; >50 nM=C.

[2] = molecular target: T2, Ba/F3-KIF5B-RET-V804L (Homo sapiens, UniProt P07949, V804L); assay: Cell anti-proliferation (CellTiter-Glo), Ba/F3-KIF5B-RET-V804L cells; format: cell-based; details: cell viability, 72 h incubation
T2 construct: KIF5B (fusion partner, N-terminal part of kinesin-1 heavy chain, P33176); host or cells: Ba/F3 (murine pro-B cells); the other entry of the earlier key: KIF5B (P33176, Kinesin-1 heavy chain)
T2 sequence (P07949 713-1063 V804L limits assumed): T1 sequence (P07949 713-1063 limits assumed) with V92L
Method: as §1, §2, §3, §4, §5, §6

[3] = molecular target: T3, Ba/F3-KIF5B-RET-V804M (Homo sapiens, UniProt P07949, V804M); assay: Cell anti-proliferation (CellTiter-Glo), Ba/F3-KIF5B-RET-V804M cells; format: cell-based; details: cell viability, 72 h incubation
T3 construct: KIF5B (fusion partner, N-terminal part of kinesin-1 heavy chain, P33176); host or cells: Ba/F3 (murine pro-B cells); the other entry of the earlier key: KIF5B (P33176, Kinesin-1 heavy chain)
T3 sequence (P07949 713-1063 V804M limits assumed): T1 sequence (P07949 713-1063 limits assumed) with V92M
Method: as §1, §2, §3, §4, §5, §6

[4] = test system: Ba/F3-KIF5B-RET cells; assay: In vivo efficacy study, subcutaneous Ba/F3-KIF5B-RET tumor in nude mice; design: species or system BALB/c nude mice; details: 10 mg/kg P.O. BID x 3 weeks
Method: Cell culture: Ba/F3-KIF5B-RET cell line was cultured with 1640 medium (Biological Industries)+10%/f fetal bovine serum (BI)+1% double antibody (Penicillin Streptomycin solution, Corning, USA) at 37° C. with 5% CO2. Two passages were performed for one week. When the cell saturation was 80%-90% and the number reached the required level, the cells were collected, counted and inoculated.
Animals: BALB/c nude mice, female, 6-8 weeks of age, weighing 18-22 g. A total of 18 mice were required, provided by Beijing Vital River Laboratory Animal Technology Co., Ltd.
Tumor inoculation: 0.2 ml (2×106) Ba/F3-KIF5B-RET cells (plus stromal gel, volume ratio 1:1) were inoculated subcutaneously on the right posterior dorsum of each mouse, and group dosing was started when the average tumor volume reached about 150-200 mm^3.
Experimental index: Tumor volume and body weight were measured twice a week. Tumor volume was measured by vernier calipers with the formula TV=0.5 a×b2, where a is the long diameter of the tumor and b is the short diameter of the tumor.

Row | SMILES | IC50 [1] | IC50 [2] | IC50 [3] | also measured
1 | CO[C@]1(C(=O)N[C@@H](C)c2ccc(-n3cc(F)cn3)nc2)CC[C@H](c2nc(Nc3cc(C)[nH]n3)c3cnn(CC(F)F)c3n2)CC1 [Compound C6] | < 10 nM | < 10 nM | < 10 nM | –
2 | CO[C@]1(C(=O)N[C@@H](C)c2ccc(-n3cc(F)cn3)nc2)CC[C@H](c2nc(Nc3cc(C)[nH]n3)c3cnn(C)c3n2)CC1 [Compound C1] | < 10 nM | < 10 nM | < 10 nM | Tumor Volume(mm^3) 0 day ([4]; 0 day): 168.34 mm^3; Tumor Volume(mm^3) 2 days ([4]; 2 days): 162.57 mm^3; Tumor Volume(mm^3) 5 days ([4]; 5 days): 139.55 mm^3; Tumor Volume(mm^3) 9 days ([4]; 9 days): 189.12 mm^3; Tumor Volume(mm^3) 12 days ([4]; 12 days): 222.35 mm^3; Tumor Volume(mm^3) 16 days ([4]; 16 days): 203.41 mm^3; Tumor Volume(mm^3) 19 days ([4]; 19 days): 199.75 mm^3; Tumor Volume(mm^3) 22 days ([4]; 22 days): 199.64 mm^3
3 | CO[C@]1(C(=O)N[C@@H](C)c2cnc(-n3cc(F)cn3)cn2)CC[C@H](c2nc(Nc3cc(C)[nH]n3)c3cnn(C)c3n2)CC1 [Compound C8] | < 10 nM | < 10 nM | < 10 nM | –
4 | CCn1ncc2c(Nc3cc(C)[nH]n3)nc([C@H]3CC[C@](OC)(C(=O)N[C@@H](C)c4cnc(-n5cc(F)cn5)cn4)CC3)nc21 [Compound C5] | < 10 nM | < 10 nM | < 10 nM | –
5 | CO[C@]1(C(=O)N[C@@H](C)c2cnc(-n3cc(F)cn3)s2)CC[C@H](c2nc(Nc3cc(C)[nH]n3)c3cnn(C4CC4)c3n2)CC1 [Compound C14] | < 10 nM | < 10 nM | 10 to 50 nM | –
6 | CCn1ncc2c(Nc3cc(C)[nH]n3)nc([C@H]3CC[C@](OC)(C(=O)N[C@@H](C)c4csc(-n5cc(F)cn5)n4)CC3)nc21 [Compound C15] | < 10 nM | < 10 nM | 10 to 50 nM | –
7 | CO[C@]1(C(=O)N[C@@H](C)c2cnc(-n3cc(F)cn3)cn2)CC[C@H](c2nc(Nc3cc(C)[nH]n3)c3cnn(CC4CC4)c3n2)CC1 [Compound C12] | < 10 nM | < 10 nM | 10 to 50 nM | –
8 | CCCn1ncc2c(Nc3cc(C)[nH]n3)nc([C@H]3CC[C@](OC)(C(=O)N[C@@H](C)c4cnc(-n5cc(F)cn5)cn4)CC3)nc21 [Compound C22] | 10 to 50 nM | 10 to 50 nM | 10 to 50 nM | –
9 | CO[C@]1(C(=O)N[C@@H](C)c2cnc(-n3cc(F)cn3)cn2)CC[C@H](c2nc(Nc3cc(C)[nH]n3)c3cn(CC(F)(F)F)nc3n2)CC1 [Control Example 3, reference compound] | 10 to 50 nM | 10 to 50 nM | > 50 nM | –
10 | CCn1ncc2c(Nc3cc(C)[nH]n3)nc([C@H]3CC[C@](OC)(C(=O)N[C@@H](C)c4ccc(-n5cc(F)cn5)nc4)CC3)nc21 [Compound C4] | < 10 nM | < 10 nM | < 10 nM | –
11 | CO[C@]1(C(=O)N[C@@H](C)c2cnc(-n3cc(F)cn3)cn2)CC[C@H](c2nc(Nc3cc(C)[nH]n3)c3cnn(C4COC4)c3n2)CC1 [Compound C21] | 10 to 50 nM | 10 to 50 nM | 10 to 50 nM | –
12 | CCn1ncc2c(Nc3cc(C)[nH]n3)nc([C@H]3CC[C@](OC)(C(=O)N[C@@H](C)c4cnc(-n5cc(F)cn5)s4)CC3)nc21 [Compound C13] | < 10 nM | < 10 nM | 10 to 50 nM | –
13 | CO[C@]1(C(=O)N[C@@H](C)c2cnc(-n3cc(F)cn3)cn2)CC[C@H](c2nc(Nc3cc(C)[nH]n3)c3cnn(C4CC4)c3n2)CC1 [Compound C20] | < 10 nM | < 10 nM | < 10 nM | –
14 | [2H]C([2H])([2H])n1ncc2c(Nc3cc(C)[nH]n3)nc([C@H]3CC[C@](OC)(C(=O)N[C@@H](C)c4ccc(-n5cc(F)cn5)nc4)CC3)nc21 [Compound C3] | < 10 nM | < 10 nM | < 10 nM | –
15 | CO[C@]1(C(=O)N[C@@H](C)c2cnc(-n3cc(F)cn3)cn2)CC[C@H](c2nc(Nc3cc(C)[nH]n3)c3cnn(C4CC(F)(F)C4)c3n2)CC1 [Compound C11] | 10 to 50 nM | 10 to 50 nM | 10 to 50 nM | –
16 | CO[C@]1(C(=O)N[C@@H](C)c2ccc(-n3cc(F)cn3)nc2)CC[C@H](c2nc(Nc3cc(C)[nH]n3)c3cnn(CCF)c3n2)CC1 [Compound C18] | < 10 nM | < 10 nM | < 10 nM | –
17 | CO[C@]1(C(=O)N[C@@H](C)c2csc(-n3cc(F)cn3)n2)CC[C@H](c2nc(Nc3cc(C)[nH]n3)c3cnn(C4CC4)c3n2)CC1 [Compound C16] | < 10 nM | < 10 nM | 10 to 50 nM | –
18 | COCCn1ncc2c(Nc3cc(C)[nH]n3)nc([C@H]3CC[C@](OC)(C(=O)N[C@@H](C)c4cnc(-n5cc(F)cn5)cn4)CC3)nc21 [Compound C10] | < 10 nM | < 10 nM | 10 to 50 nM | –
19 | CO[C@]1(C(=O)N[C@@H](C)c2cnc(-n3cc(F)cn3)cn2)CC[C@H](c2nc(Nc3cc(C)[nH]n3)c3cnn(CC(F)F)c3n2)CC1 [Compound C7] | < 10 nM | < 10 nM | < 10 nM | –
20 | CO[C@]1(C(=O)N[C@@H](C)c2ccc(-n3cc(F)cn3)nc2)CC[C@H](c2nc(Nc3cc(C)[nH]n3)c3cnn(COCC[Si](C)(C)C)c3n2)CC1 [Compound C2] | > 50 nM | 10 to 50 nM | > 50 nM | –
21 | CO[C@]1(C(=O)N[C@@H](C)c2cnc(-n3cc(F)cn3)cn2)CC[C@H](c2nc(Nc3cc(C)[nH]n3)c3cnn(CC(F)(F)F)c3n2)CC1 [Compound C23] | < 10 nM | < 10 nM | 10 to 50 nM | RET inhibitory activity / inhibition effect (in words) ([1]; summary of Table 1, especially Ba/F3-KIF5B-RET-V804M and Ba/F3-KIF5B-RET-V804L): superior to that of Control Example 3
22 | [2H]C([2H])([2H])n1ncc2c(Nc3cc(C)[nH]n3)nc([C@H]3CC[C@](OC)(C(=O)N[C@@H](C)c4cnc(-n5cc(F)cn5)cn4)CC3)nc21 [Compound C9] | < 10 nM | < 10 nM | < 10 nM | –
